Assay: mn = molality of the nth substance listed, in mol/kg
Conditions: 101 kPa, Liquid; for mass density: Pycnometric method; for viscosity: Capillary tube (Ostwald / Ubbelohde) method

C[C@@H](O)[C@H](N)C(=O)O [L-threonine] + O
Conditions	mass density [kg/m3]	viscosity [mPa·s]
293.15 K, m1 = 0.025	999.31	–
293.15 K, m1 = 0.05	1000.36	–
293.15 K, m1 = 0.075	1001.39	–
293.15 K, m1 = 0.0999	1002.41	–
293.15 K, m1 = 0.1249	1003.41	–
293.15 K, m1 = 0.15	1004.39	–
293.15 K, m1 = 0.175	1005.36	–
293.15 K, m1 = 0.2	1006.31	–
298.15 K, m1 = 0.025	998.14	0.8981
298.15 K, m1 = 0.05	999.18	0.9057
298.15 K, m1 = 0.075	1000.22	0.9134
298.15 K, m1 = 0.0999	1001.23	0.9211
298.15 K, m1 = 0.1249	1002.23	0.9286
298.15 K, m1 = 0.15	1003.21	0.936
298.15 K, m1 = 0.175	1004.18	0.9434
298.15 K, m1 = 0.2	1005.12	0.9511
303.15 K, m1 = 0.025	996.75	0.8051
303.15 K, m1 = 0.05	997.8	0.8128
303.15 K, m1 = 0.075	998.83	0.8205
303.15 K, m1 = 0.0999	999.84	0.828
303.15 K, m1 = 0.1249	1000.83	0.8358
303.15 K, m1 = 0.15	1001.83	0.8434
303.15 K, m1 = 0.175	1002.79	0.851
303.15 K, m1 = 0.2	1003.74	0.8584
308.15 K, m1 = 0.025	995.14	0.7266
308.15 K, m1 = 0.05	996.19	0.7344
308.15 K, m1 = 0.075	997.23	0.7421
308.15 K, m1 = 0.0999	998.24	0.7496
308.15 K, m1 = 0.1249	999.24	0.7571
308.15 K, m1 = 0.15	1000.23	0.7645
308.15 K, m1 = 0.175	1001.2	0.7719
308.15 K, m1 = 0.2	1002.15	0.7792
313.15 K, m1 = 0.025	993.32	0.66
313.15 K, m1 = 0.05	994.38	0.6678
313.15 K, m1 = 0.075	995.42	0.6754
313.15 K, m1 = 0.0999	996.44	0.6828
313.15 K, m1 = 0.1249	997.44	0.6901
313.15 K, m1 = 0.15	998.43	0.6974
313.15 K, m1 = 0.175	999.4	0.7047
313.15 K, m1 = 0.2	1000.35	0.7119
318.15 K, m1 = 0.025	991.32	0.6044
318.15 K, m1 = 0.05	992.38	0.6121
318.15 K, m1 = 0.075	993.42	0.6196
318.15 K, m1 = 0.0999	994.45	0.6269
318.15 K, m1 = 0.1249	995.46	0.6341
318.15 K, m1 = 0.15	996.45	0.6413
318.15 K, m1 = 0.175	997.43	0.6485
318.15 K, m1 = 0.2	998.39	0.6556

Source: the NIST ThermoML archive (doi:10.1016/j.jct.2013.01.008)
